Tests used:
Assay type in all cases: biochemical
[1] = target: FGFR3 (h) (Homo sapiens, UniProt P22607); assay: FGFR3 (enzymatic assay), TR-FRET; details: 25 μM ATP; read-out: FGFR3 pIC50 (converted)
Description: (§1) In a final reaction volume of 30 μL, FGFR3 (h) (40 ng/ml) was incubated with 50 mM HEPES pH 7.5, 6 mM MnCl2, 1 mM DTT, 0.1 mM Na3VO4, 0.01% Triton-X-100, 500 nM Btn-Flt3 and 25 μM ATP in the presence of compound (1% DMSO final). After incubation for 60 minutes at room temperature the reaction was stopped with 2.27 nM EU-anti P-Tyr, 7 mM EDTA, 31.25 nM SA-XL-665 and 0.02% BSA which was present for 60 minutes at room temperature. Time-Resolved Fluorescence Resonance Energy Transfer (TR-FRET) signal (ex340 nm. Em 620 nm, em 655 nm) was measured afterwards and results are expressed in RFU (Relative Fluorescence Units). In this assay, the inhibitory effect of different compound concentrations (range 10 μM to 0.1 nM) was determined and used to calculate an IC50 (M) and pIC50 (−log IC50) value.

[2] = target: FGFR4 (h) (Homo sapiens, UniProt P22455); assay: FGFR4 (enzymatic assay), TR-FRET; details: 5 μM ATP; read-out: FGFR4 pIC50 (converted)
Description: as §1, with “μL, FGFR4” for “μL, FGFR3”, “(h) (60” for “(h) (40”, “and 5” for “and 25”

[3] = target: KDR (h) (VEGFR2) (Homo sapiens, UniProt P35968); assay: KDR (VEGFR2) (enzymatic assay), TR-FRET; details: 3 μM ATP; read-out: VEGFR2 (KDR) pIC50 (converted)
Description: KDR (VEGFR2) (Enzymatic Assay)
as §1, with “30 μL, KDR (h) (150” for “30 μL, FGFR3 (h) (40”, “KDR (h) (150 ng/ml) was” for “FGFR3 (h) (40 ng/ml) was”, “Btn-Flt3 and 3 μM ATP” for “Btn-Flt3 and 25 μM ATP”, “incubation for 120 minutes at” for “incubation for 60 minutes at”

[4] = target: FGFR1 (h) (Homo sapiens, UniProt P11362); assay: FGFR1 (enzymatic assay), TR-FRET; details: 5 μM ATP; read-out: FGFR1 pIC50 (converted)
Description: as §1, with “μL, FGFR1” for “μL, FGFR3”, “(h) (25” for “(h) (40”, “and 5” for “and 25”

[5] = target: FGFR2 (h) (Homo sapiens, UniProt P21802); assay: FGFR2 (enzymatic assay), TR-FRET; details: 0.4 μM ATP; read-out: FGFR2 pIC50 (converted)
Description: as §1, with “μL, FGFR2” for “μL, FGFR3”, “(h) (150” for “(h) (40”, “and 0.4” for “and 25”, “in” for “in RFU”

Chain of FGFR3 (h) (P22607 23-806): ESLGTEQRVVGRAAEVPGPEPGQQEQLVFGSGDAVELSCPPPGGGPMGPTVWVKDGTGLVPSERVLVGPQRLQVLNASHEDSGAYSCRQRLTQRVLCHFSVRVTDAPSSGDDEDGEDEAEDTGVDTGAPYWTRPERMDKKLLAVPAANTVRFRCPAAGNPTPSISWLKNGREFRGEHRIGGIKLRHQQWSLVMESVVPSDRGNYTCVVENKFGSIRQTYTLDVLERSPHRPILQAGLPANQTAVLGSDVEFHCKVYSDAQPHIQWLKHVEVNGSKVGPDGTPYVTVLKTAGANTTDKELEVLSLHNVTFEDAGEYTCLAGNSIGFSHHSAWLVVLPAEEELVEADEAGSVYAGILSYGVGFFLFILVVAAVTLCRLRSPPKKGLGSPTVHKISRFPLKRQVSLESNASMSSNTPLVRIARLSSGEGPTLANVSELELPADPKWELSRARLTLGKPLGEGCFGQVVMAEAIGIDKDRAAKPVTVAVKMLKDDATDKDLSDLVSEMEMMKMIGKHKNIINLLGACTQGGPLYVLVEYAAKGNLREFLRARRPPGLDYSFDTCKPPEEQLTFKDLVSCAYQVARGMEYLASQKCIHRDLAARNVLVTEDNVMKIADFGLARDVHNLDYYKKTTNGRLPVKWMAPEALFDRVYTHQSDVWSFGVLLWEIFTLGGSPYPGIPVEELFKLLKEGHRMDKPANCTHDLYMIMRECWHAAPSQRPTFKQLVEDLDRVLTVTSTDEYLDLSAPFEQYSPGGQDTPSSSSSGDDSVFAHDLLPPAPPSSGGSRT
Chain of FGFR1 (h) (P11362 22-822): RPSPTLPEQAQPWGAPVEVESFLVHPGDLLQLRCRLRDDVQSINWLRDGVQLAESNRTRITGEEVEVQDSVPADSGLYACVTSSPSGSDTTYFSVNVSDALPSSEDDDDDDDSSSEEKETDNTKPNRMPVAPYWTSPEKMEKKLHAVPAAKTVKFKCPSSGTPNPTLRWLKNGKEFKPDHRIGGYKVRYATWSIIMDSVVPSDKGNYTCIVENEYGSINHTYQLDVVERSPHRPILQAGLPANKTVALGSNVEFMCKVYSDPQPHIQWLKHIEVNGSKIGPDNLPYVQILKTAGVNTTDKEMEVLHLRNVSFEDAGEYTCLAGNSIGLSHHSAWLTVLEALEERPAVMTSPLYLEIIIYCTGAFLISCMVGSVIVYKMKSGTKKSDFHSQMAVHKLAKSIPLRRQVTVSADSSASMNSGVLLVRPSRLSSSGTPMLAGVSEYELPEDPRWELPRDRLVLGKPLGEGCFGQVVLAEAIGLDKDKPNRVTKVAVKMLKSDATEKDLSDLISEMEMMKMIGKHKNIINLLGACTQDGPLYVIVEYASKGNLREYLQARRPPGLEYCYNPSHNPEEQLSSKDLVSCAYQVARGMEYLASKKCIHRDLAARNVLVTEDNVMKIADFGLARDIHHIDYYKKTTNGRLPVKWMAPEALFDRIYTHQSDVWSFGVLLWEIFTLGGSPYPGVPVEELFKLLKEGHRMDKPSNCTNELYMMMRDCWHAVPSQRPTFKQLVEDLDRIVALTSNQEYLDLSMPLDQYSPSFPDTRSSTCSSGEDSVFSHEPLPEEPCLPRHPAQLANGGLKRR
Chain of FGFR2 (h) (P21802 22-821): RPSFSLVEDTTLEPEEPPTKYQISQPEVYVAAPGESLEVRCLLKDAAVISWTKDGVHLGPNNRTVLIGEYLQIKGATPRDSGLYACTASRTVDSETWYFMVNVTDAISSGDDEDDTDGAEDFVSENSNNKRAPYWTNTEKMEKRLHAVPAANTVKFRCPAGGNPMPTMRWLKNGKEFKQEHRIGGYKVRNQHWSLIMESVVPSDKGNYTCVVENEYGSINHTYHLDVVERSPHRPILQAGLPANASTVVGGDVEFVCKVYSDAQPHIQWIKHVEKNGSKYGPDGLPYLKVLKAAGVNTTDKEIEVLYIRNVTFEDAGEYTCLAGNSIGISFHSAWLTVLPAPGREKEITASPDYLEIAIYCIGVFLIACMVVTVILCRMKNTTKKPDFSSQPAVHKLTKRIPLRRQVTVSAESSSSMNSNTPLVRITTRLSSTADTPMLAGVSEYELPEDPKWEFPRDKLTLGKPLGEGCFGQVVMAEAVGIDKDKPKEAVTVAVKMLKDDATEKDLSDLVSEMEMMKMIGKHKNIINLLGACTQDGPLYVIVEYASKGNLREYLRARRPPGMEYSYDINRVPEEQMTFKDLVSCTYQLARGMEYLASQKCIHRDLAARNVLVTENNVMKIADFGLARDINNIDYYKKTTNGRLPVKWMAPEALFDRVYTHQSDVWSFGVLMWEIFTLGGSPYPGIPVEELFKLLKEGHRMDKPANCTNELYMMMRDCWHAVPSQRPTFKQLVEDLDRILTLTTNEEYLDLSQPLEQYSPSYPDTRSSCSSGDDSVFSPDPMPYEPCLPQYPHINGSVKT
Chain of KDR (h) (VEGFR2) (P35968 20-1356): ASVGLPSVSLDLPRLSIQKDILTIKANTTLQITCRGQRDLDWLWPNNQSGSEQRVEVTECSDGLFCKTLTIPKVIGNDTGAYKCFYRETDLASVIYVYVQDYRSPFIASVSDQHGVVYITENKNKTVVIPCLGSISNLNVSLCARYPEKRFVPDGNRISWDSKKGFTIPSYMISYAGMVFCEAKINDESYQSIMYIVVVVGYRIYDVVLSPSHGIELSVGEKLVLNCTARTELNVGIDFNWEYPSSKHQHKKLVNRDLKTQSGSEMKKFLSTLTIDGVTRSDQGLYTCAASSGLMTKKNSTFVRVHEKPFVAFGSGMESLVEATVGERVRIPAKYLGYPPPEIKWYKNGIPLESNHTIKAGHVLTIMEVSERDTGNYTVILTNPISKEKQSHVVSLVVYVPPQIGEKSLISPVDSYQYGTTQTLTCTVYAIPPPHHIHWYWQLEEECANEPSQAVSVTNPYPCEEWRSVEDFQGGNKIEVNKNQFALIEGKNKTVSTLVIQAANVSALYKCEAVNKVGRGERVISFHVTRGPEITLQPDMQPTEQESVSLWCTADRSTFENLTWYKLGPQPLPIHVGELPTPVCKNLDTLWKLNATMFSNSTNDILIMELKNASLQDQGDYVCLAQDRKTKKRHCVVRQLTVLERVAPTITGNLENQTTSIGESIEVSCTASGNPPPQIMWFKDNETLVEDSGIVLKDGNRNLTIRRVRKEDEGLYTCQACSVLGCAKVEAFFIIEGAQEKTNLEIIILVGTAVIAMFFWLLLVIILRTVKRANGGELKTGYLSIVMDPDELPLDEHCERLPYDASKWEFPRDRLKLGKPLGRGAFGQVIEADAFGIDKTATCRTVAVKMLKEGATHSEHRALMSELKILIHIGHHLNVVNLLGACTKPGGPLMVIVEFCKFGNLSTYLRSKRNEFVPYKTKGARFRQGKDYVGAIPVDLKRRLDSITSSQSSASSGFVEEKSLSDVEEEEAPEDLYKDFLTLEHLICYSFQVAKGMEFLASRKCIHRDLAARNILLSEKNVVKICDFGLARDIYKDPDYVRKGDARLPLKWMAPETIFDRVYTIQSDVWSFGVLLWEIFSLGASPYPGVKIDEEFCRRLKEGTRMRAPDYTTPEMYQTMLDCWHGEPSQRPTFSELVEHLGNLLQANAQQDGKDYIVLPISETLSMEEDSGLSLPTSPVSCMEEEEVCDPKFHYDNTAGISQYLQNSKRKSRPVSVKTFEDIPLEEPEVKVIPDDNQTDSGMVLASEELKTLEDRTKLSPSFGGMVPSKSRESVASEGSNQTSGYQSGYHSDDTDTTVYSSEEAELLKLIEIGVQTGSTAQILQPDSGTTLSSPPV
Chain of FGFR4 (h) (P22455 22-802): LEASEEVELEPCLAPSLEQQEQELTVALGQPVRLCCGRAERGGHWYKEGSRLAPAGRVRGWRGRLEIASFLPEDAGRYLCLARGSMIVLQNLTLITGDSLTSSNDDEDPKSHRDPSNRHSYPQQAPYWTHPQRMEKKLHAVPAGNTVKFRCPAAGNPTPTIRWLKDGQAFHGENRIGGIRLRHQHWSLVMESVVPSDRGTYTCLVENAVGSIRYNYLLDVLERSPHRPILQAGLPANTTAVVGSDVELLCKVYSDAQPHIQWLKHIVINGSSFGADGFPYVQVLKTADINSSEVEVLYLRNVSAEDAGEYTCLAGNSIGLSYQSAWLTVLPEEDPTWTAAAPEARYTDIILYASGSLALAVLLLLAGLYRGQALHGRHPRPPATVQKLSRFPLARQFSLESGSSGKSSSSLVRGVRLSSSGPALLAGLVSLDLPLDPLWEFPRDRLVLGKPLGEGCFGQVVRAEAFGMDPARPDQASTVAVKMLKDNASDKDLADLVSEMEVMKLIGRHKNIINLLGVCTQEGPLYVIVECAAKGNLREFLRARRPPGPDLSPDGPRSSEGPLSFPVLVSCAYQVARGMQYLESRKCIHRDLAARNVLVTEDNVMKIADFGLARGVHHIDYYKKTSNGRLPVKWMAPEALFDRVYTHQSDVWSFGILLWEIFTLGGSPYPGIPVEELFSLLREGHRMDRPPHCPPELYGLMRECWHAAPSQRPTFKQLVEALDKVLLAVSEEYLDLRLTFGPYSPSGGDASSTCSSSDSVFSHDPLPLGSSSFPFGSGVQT

Row | SMILES | IC50 [1] [nM] | IC50 [2] [nM] | IC50 [3] [nM] | IC50 [4] [nM] | IC50 [5] [nM]
1 | COc1cc(OC)cc(/C(=C/CNC(C)C)c2ccc3ncc(-c4cnn(C)c4)nc3c2)c1 [Compound 9] | 123 | 1480 | 4470 | 60.3 | 87.1
2 | COc1cc(OC)cc(C(NCCNC(C)C)c2ccc3ncc(-c4cnn(C)c4)nc3c2)c1.Cl (single isomer, unassigned) [Compound 24] | 257 | > 1000 | > 1000 | 182 | 324
3 | COc1cc(OC)cc(C(O)(CNCCNC(C)C)c2ccc3ncc(-c4cnn(C)c4)nc3c2)c1 (single isomer, unassigned) [Compound 5] | 575 | > 1000 | > 1000 | 603 | ~741
4 | COc1cc(OC)cc(C(O)(CNCCNC(C)C)c2ccc3ncc(-c4cnn(C)c4)nc3c2)c1 (single isomer, unassigned) [Compound 6] | 676 | – | – | 955 | 813
5 | COc1cc(OC)cc(/C(=C/CN(C)C)c2ccc3ncc(-c4cnn(C)c4)nc3c2)c1 [Compound 34] | 107 | > 1000 | > 1000 | 132 | 170
6 | COc1cc(OC)cc(C(CCN2CCCC2=O)c2ccc3ncc(-c4cnn(C)c4)nc3c2)c1.Cl (stereo not shown) [Compound 7] | ~12.6 | 158 | 347 | 56.2 | 38
7 | COc1cc(OC)cc(C(=O)c2ccc3ncc(-c4cnn(C)c4)nc3c2)c1 [Compound 2] | 66.1 | ~10000 | 708 | 117 | 209
8 | COc1cc(OC)cc(C(CCNCC(F)(F)F)c2ccc3ncc(-c4cnn(C)c4)nc3c2)c1.Cl (stereo not shown) [Compound 33] | 138 | ~1000 | > 1000 | 224 | 380
9 | COc1cc(OC)cc(C2(c3ccc4ncc(-c5cnn(C)c5)nc4c3)CC2)c1 [Compound 30] | 43.7 | 479 | 501 | 91.2 | 50.1
10 | CNCC(O)(c1cc(OC)cc(OC)c1)c1ccc2ncc(-c3cnn(C)c3)nc2c1.Cl (single isomer, unassigned) [Compound 37] | 537 | > 1000 | > 1000 | ~891 | 589
11 | COc1cc(OC)cc(/C(=C\CN(C)C)c2ccc3ncc(-c4cnn(C)c4)nc3c2)c1 [Compound 10, {(Z)-3-(3,5-Dimethoxy-phenyl)-3-[3-(1-methyl-1H-pyrazol-4-yl)-quinoxalin-6-yl]-allyl}-dimethyl-amine] | 9.12 | 107 | > 1000 | 17 | 15.8
12 | COc1cc(OC)cc(C(CC(C)(O)CNC(C)C)c2ccc3ncc(-c4cnn(C)c4)nc3c2)c1.Cl (stereo not shown) [Compound 25] | 708 | > 1000 | 562 | 794 | ~1000
13 | COc1cc(OC)cc(/C(=C\CNCC(F)(F)F)c2ccc3ncc(-c4cnn(C)c4)nc3c2)c1 [Compound 14, {(Z)-3-(3,5-Dimethoxy-phenyl)-3-[3-(1-methyl-1H-pyrazol-4-yl)-quinoxalin-6-yl]-allyl}-(2,2,2-trifluoro-ethyl)-amine] | 4.68 | 28.8 | 245 | 13.8 | 12.9
14 | COc1cc(OC)cc(C(CC(=O)NC(C)C)c2ccc3ncc(-c4cnn(C)c4)nc3c2)c1 (stereo not shown) [Compound 23] | > 1000 | > 1000 | > 1000 | > 1000 | > 1000

Results, then the compound that gave them:

Row | IC50 [1] [nM] | IC50 [2] [nM] | IC50 [3] [nM] | IC50 [4] [nM] | IC50 [5] [nM] | SMILES
15 | ~912 | 5500 | > 10000 | 661 | 851 | COc1cc(OC)cc(C(CCNC(C)C)c2ccc3ncc(-c4cnn(C)c4)nc3c2)c1 (single isomer, unassigned) [Compound 32a]
16 | 269 | > 1000 | > 1000 | 490 | 427 | COc1cc(OC)cc(C(CCCN)c2ccc3ncc(-c4cnn(C)c4)nc3c2)c1.Cl (stereo not shown) [Compound 40]
17 | 43.7 | 182 | > 1000 | 72.4 | 145 | COc1cc(OC)cc(C(CC#N)c2ccc3ncc(-c4cnn(C)c4)nc3c2)c1 (stereo not shown) [Compound 18]
18 | 67.6 | 355 | > 1000 | 37.2 | 67.6 | COc1cc(OC)cc(C(CCN(C)C)c2ccc3ncc(-c4cnn(C)c4)nc3c2)c1.Cl (stereo not shown) [Compound 21]
19 | > 1000 | > 1000 | > 1000 | > 1000 | > 1000 | CN(C)CCC(c1ccccc1)c1ccc2ncc(-c3cnn(C)c3)nc2c1 (stereo not shown) [Compound 35]
20 | 51.3 | 513 | > 1000 | 107 | 126 | COc1cc(OC)cc(C(CCO)c2ccc3ncc(-c4cnn(C)c4)nc3c2)c1 (stereo not shown) [Compound 22]
21 | 61.7 | 447 | 4680 | 77.6 | 67.6 | COc1cc(OC)cc(C(CCN)c2ccc3ncc(-c4cnn(C)c4)nc3c2)c1.Cl (stereo not shown) [Compound 20]
22 | 35.5 | 275 | > 1000 | 22.9 | 25.7 | COc1cc(OC)cc(C(CCNC(C)C)c2ccc3ncc(-c4cnn(C)c4)nc3c2)c1.Cl (stereo not shown) [Compound 29, {3-(3,5-Dimethoxy-phenyl)-3-[3-(1-methyl-1H-pyrazol-4-yl)-quinoxalin-6-yl]-propyl}-isopropyl-amine]
23 | 21.4 | 145 | > 1000 | 7.59 | 17.8 | COc1cc(OC)cc(C(CCNC(C)C)c2ccc3ncc(-c4cnn(C)c4)nc3c2)c1 (single isomer, unassigned) [Compound 19a]
24 | 3720 | 8510 | 1580 | ~1510 | 2630 | Cn1cc(-c2cnc3ccc(C(O)c4ccccc4)cc3n2)cn1 (stereo not shown) [Compound 28]
